Where “and” joins values, the source holds several entries; their conditions need not be identical. Equal values may be shown once. Inconclusive results and toxic doses are left out. Rule for the calls: active = survival T/C of 150% or more; inactive = T/C below 125% in these data.
Test system: P388 leukemia ip, CD2F1 mice, survival T/C
Test: NCI In Vivo Anticancer Drug Screen. Data for tumor model P388 Leukemia (intraperitoneal) in CD2F1 (CDF1) mice
Settings: endpoint: median survival time, higher = longer survival
Method in brief: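 Mice carrying the transplanted tumor received test compound or vehicle. Survival was recorded in each group, and the value is the treated-group measurement divided by that of the vehicle-treated control group.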

[1] = dose: 50.0 mg/kg/injection, schedule: Q01DX009 (ip), vehicle: saline
[2] = dose: 100.0 mg/kg/injection, schedule: Q01DX009 (ip), vehicle: saline
[3] = dose: 200.0 mg/kg/injection, schedule: Q01DX009 (ip), vehicle: saline
[4] = dose: 12.5 mg/kg/injection, schedule: Q01DX009 (ip), vehicle: water
[5] = dose: 25.0 mg/kg/injection, schedule: Q01DX009 (ip), vehicle: water
[6] = dose: 50.0 mg/kg/injection, schedule: Q01DX009 (ip), vehicle: Klucel (hydroxypropylcellulose) (HPC)
[7] = dose: 100.0 mg/kg/injection, schedule: Q01DX009 (ip), vehicle: Klucel (hydroxypropylcellulose) (HPC)
[8] = dose: 200.0 mg/kg/injection, schedule: Q01DX009 (ip), vehicle: Klucel (hydroxypropylcellulose) (HPC)

Measured: T/C

CCOS(=O)(=O)c1ccc(C(=O)O)cc1
inactive: [1] 108 % of control | [2] 107 % of control | [3] 107 % of control

COC(C)(C)O/N=C(\C[n+]1ccccc1)c1ccccc1
inactive: dose: 3.13 mg/kg/injection, schedule: Q01DX009 (ip), vehicle: water 100 % of control | dose: 6.25 mg/kg/injection, schedule: Q01DX009 (ip), vehicle: water 104 % of control | [4] 114 % of control | [5] 105 % of control

ClC1=CC(Cl)=C2N=C(N3CCCC3)N=C3N=C(N4CCCC4)N=C1N32
inactive: dose: 50.0 mg/kg/injection, schedule: Q01DX005 (ip), vehicle: Klucel + Tween-80 93 % of control | dose: 100.0 mg/kg/injection, schedule: Q01DX005 (ip), vehicle: Klucel + Tween-80 93 % of control | dose: 200.0 mg/kg/injection, schedule: Q01DX005 (ip), vehicle: Klucel + Tween-80 90 % of control

COc1ccc(-c2nc(C)cc3cc(OC)c(OC)cc23)cc1OC
inactive: [4] 98 % of control | [5] 100 % of control | dose: 50.0 mg/kg/injection, schedule: Q01DX009 (ip), vehicle: water 100 % of control | dose: 100.0 mg/kg/injection, schedule: Q01DX009 (ip), vehicle: water 100 % of control

CCN(CC)CC(C)=O
inactive: dose: 25.0 mg/kg/injection, schedule: Q01DX009 (ip), vehicle: saline 101 % of control | [1] 102 % of control | [2] 103 % of control | [3] 104 % of control

C[C@@H]1C[C@@H](O)[C@]2(O)O[C@@H]3C[C@@]4(C=O)[C@@H](CC=C5[C@@H]4CC[C@]4(C)C(C6=CC(=O)OC6)CC[C@]54O)C[C@H]3O[C@@H]2O1 (stereo partly drawn)
inactive: dose: 1.75 mg/kg/injection, schedule: Q01DX005 (ip), vehicle: saline with Tween-80 94 % of control | dose: 3.5 mg/kg/injection, schedule: Q01DX005 (ip), vehicle: saline with Tween-80 100 % of control | dose: 7.0 mg/kg/injection, schedule: Q01DX005 (ip), vehicle: saline with Tween-80 98 % of control

COC(=O)c1c(-c2ccccc2)c(-c2ccccc2)nn(-c2ccccc2)c1=O
inactive: dose: 50.0 mg/kg/injection, schedule: Q01DX001 (ip), vehicle: saline with Tween-80 100 % of control and 102 % of control | dose: 100.0 mg/kg/injection, schedule: Q01DX001 (ip), vehicle: saline with Tween-80 99 % of control and 100 % of control | dose: 200.0 mg/kg/injection, schedule: Q01DX001 (ip), vehicle: saline with Tween-80 92 % of control and 97 % of control | dose: 400.0 mg/kg/injection, schedule: Q01DX001 (ip), vehicle: saline with Tween-80 87 % of control and 90 % of control

COC1(OC)C(C)C(C#N)(C#N)C1(OC)OC (stereo not drawn)
inactive: dose: 60.0 mg/kg/injection, schedule: Q01DX005 (ip), vehicle: Klucel (hydroxypropylcellulose) (HPC) 100 % of control | dose: 120.0 mg/kg/injection, schedule: Q01DX005 (ip), vehicle: Klucel (hydroxypropylcellulose) (HPC) 106 % of control

Cc1ccccc1C1=NC2(CCCCC2)N=C1NN
inactive: [6] 104 % of control | [7] 98 % of control | [8] 91 % of control

CC(C)CC1NC(=O)C(CC(C)C)N(CO)C1=O (stereo not drawn)
inactive: dose: 50.0 mg/kg/injection, schedule: Q01DX005 (ip), vehicle: Klucel (hydroxypropylcellulose) (HPC) 97 % of control | dose: 100.0 mg/kg/injection, schedule: Q01DX005 (ip), vehicle: Klucel (hydroxypropylcellulose) (HPC) 99 % of control | dose: 200.0 mg/kg/injection, schedule: Q01DX005 (ip), vehicle: Klucel (hydroxypropylcellulose) (HPC) 95 % of control

CC(C)=NNS(=O)(=O)c1ccc(C)cc1
inactive: dose: 12.5 mg/kg/injection, schedule: Q01DX009 (ip), vehicle: Klucel (hydroxypropylcellulose) (HPC) 101 % of control | dose: 25.0 mg/kg/injection, schedule: Q01DX009 (ip), vehicle: Klucel (hydroxypropylcellulose) (HPC) 93 % of control | [6] 95 % of control | [7] 97 % of control | [8] 88 % of control

CSC1(c2ccccc2NS(=O)(=O)c2ccccc2)SCCS1
inactive: dose: 50.0 mg/kg/injection, schedule: Q04DX003 (ip), vehicle: saline 102 % of control | dose: 100.0 mg/kg/injection, schedule: Q04DX003 (ip), vehicle: saline 92 % of control | dose: 200.0 mg/kg/injection, schedule: Q04DX003 (ip), vehicle: saline 89 % of control

COc1cc(NC(C)CN(CC(C)C)C(C)C)c2ncccc2c1 (stereo not drawn)
inactive: dose: 50.0 mg/kg/injection, schedule: Q01DX005 (ip), vehicle: saline 104 % of control | dose: 100.0 mg/kg/injection, schedule: Q01DX005 (ip), vehicle: saline 98 % of control

Reference: PubChem BioAssay AID330 (DTP/NCI, 2004)
